Data published in ChEMBL document CHEMBL5257130, “Methyl and Fluorine Effects in Novel Orally Bioavailable Keap1-Nrf2 PPI Inhibitor” (ACS Med Chem Lett, 2023).
In brackets after ≈: the same amount, converted by molar mass. Values belong to the molecule of their own block, whether it stands above or below them.

What was measured:
[1] = target: Keap1/Nrf2 (Homo sapiens, UniProt Q14145); assay: Inhibition of Nrf2-Keap1 Kelch domain (unknown origin) protein-protein interaction in presence of biotin labeled 16mer ETGE peptide AFFAQLQLDEETGEFL; assay type: protein assay
[2] = Apparent permeability in human Caco-2 cells at 25 micromol/L incubated for 2 hrs by LC/MS/MS analysis; assay type: ADME, cell-based; conditions: dose 25 µmol/L
[3] = target: Kelch-like ECH-associated protein 1 (Homo sapiens) (UniProt Q14145)
Description: Binding affinity to Keap1 Kelch domain (unknown origin) assessed as change in free energy by isothermal titration calorimetry assay

[4] = target: Kelch-like ECH-associated protein 1 (Homo sapiens) (UniProt Q14145); remark: listed apart in the source
Description: Binding affinity to Keap1 Kelch domain (unknown origin) assessed as change in enthalpy by isothermal titration calorimetry assay

[5] = target: Kelch-like ECH-associated protein 1 (Homo sapiens) (UniProt Q14145); assay: Binding affinity to Keap1 Kelch domain (unknown origin) assessed as change in entropy by isothermal titration calorimetry assay
[6] = cells; conditions: Homo sapiens, HRMC, 18 h
Description: Upregulation of HO-1 expression in human HRMC cells incubated for 18 hrs by ELISA assay

[7] = Solubility of compound in FeSSIF at pH 5 incubated for 4 hrs by LC/MS analysis; assay type: ADME
[8] = Metabolic stability in rat liver microsomes assessed as parent compound remaining at 5 uM measured after 60 mins; assay type: ADME, Microsome; conditions: read-out: Stability
[9] = Solubility of compound in FASSIF at pH 6.5 incubated for 4 hrs by LC/MS analysis; assay type: ADME
[10] = Metabolic stability in human liver microsomes assessed as parent compound remaining at 5 uM measured after 60 mins; assay type: ADME, Microsome; conditions: read-out: Stability
[11] = Oral bioavailability in CD(SD) rat at 3 mg/kg measured upto 25 hrs; assay type: ADME, organism-based; conditions: in vivo
[12] = AUC in CD(SD) rat at 3 mg/kg, po measured upto 25 hrs; assay type: ADME, organism-based; design: time < 25 hrs, dose 3 mg/kg, route po; conditions: in vivo
[13] = Tmax in CD(SD) rat at 3 mg/kg, po measured upto 25 hrs; assay type: ADME, organism-based; conditions: in vivo
[14] = Volume of distribution in CD(SD) rat at 1 mg/kg, iv measured upto 25 hrs; assay type: ADME, organism-based; conditions: in vivo
[15] = target: KEAP1/NRF2 (Rattus norvegicus) (UniProt O54968+P57790); assay: In vivo inhibition of Nrf2-Keap1 Kelch domain protein-protein interaction in po dosed Wistar rat kidney assessed as increase in HO-1 protein level incubated for 6 hrs by ELISA assay; assay type: functional, organism-based; conditions: dose 3-30 mg/kg
[16] = AUC in CD(SD) rat at 1 mg/kg, iv measured upto 25 hrs; assay type: ADME, organism-based; design: time < 25 hrs, dose 1 mg/kg, route iv; conditions: in vivo
[17] = Total clearance in CD(SD) rat at 1 mg/kg, iv measured upto 25 hrs; assay type: ADME, organism-based; conditions: in vivo
[18] = Half life in CD(SD) rat at 1 mg/kg, iv measured upto 25 hrs; assay type: ADME, organism-based; conditions: in vivo
[19] = MRT in CD(SD) rat at 1 mg/kg, iv measured upto 25 hrs; assay type: ADME, organism-based; conditions: in vivo
[20] = MRT in CD(SD) rat at 3 mg/kg, po measured upto 25 hrs; assay type: ADME, organism-based; conditions: in vivo

Chain of Kelch-like ECH-associated protein 1 (Homo sapiens) (Q14145 whole entry, the tested form may be a part): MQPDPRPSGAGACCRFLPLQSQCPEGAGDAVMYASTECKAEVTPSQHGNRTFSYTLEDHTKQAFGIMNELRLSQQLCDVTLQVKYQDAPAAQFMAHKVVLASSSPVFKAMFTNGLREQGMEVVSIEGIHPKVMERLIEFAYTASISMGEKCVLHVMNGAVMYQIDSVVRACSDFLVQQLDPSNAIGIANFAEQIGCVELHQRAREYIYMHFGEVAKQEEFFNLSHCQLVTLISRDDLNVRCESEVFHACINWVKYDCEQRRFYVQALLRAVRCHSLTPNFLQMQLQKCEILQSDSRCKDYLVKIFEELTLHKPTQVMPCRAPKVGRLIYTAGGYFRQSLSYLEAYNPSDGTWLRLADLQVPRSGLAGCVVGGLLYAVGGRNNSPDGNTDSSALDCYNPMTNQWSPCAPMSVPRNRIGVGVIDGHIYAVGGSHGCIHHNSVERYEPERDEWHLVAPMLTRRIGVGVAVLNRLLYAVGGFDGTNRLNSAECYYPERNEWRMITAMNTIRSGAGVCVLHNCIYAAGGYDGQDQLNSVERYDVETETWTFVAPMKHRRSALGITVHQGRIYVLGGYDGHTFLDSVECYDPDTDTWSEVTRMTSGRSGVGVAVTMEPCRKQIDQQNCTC
Chain of Keap1/Nrf2 (Q16236 whole entry, the tested form may be a part): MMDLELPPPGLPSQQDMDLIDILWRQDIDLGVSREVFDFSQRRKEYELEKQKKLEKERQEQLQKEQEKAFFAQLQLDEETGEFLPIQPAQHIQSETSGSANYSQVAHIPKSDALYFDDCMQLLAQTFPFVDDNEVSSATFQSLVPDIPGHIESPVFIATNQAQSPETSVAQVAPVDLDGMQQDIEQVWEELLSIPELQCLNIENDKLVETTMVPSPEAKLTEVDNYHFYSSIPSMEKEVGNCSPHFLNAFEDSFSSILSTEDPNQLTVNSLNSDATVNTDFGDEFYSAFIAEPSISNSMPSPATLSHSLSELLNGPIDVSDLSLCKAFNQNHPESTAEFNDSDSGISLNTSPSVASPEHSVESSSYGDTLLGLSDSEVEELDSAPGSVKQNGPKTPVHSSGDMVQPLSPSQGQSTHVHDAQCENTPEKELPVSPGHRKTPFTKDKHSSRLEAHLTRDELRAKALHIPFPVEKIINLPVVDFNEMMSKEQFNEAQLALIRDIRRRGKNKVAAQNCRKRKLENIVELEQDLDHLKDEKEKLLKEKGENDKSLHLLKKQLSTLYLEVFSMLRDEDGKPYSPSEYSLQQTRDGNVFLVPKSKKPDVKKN
Chain of Keap1/Nrf2 (Q14145 whole entry, the tested form may be a part): as the sequence (Q14145 whole entry, the tested form may be a part) above

IC50 [1]: 55 µM
SMILES: CC[C@@H](C(=O)O)[C@H](NC(=O)Cc1ccc2c(c1)CCCC2)c1ccc(C)cc1

Papp at 2 h, 25 µM [2]: 6.6 ×10⁻⁶ cm/s | IC50 [1]: 90 µM
SMILES: Cc1ccc([C@@H](NC(=O)[C@H](F)c2ccccc2)[C@@H](C)C(=O)O)cc1

IC50 [1]: 17 µM
SMILES: Cc1ccc(C(NC(=O)Cc2ccc3c(c2)CCCC3)C(C)(C)C(=O)O)cc1 (stereo not given)

Papp at 2 h, 25 µM [2]: 3.4 ×10⁻⁶ cm/s | IC50 [1]: > 100 µM
SMILES: CO[C@H](C(=O)N[C@H](c1ccc(C)cc1)[C@@H](C)C(=O)O)c1ccccc1

IC50 [1]: 54 µM
SMILES: Cc1ccc(C(NC(=O)Cc2ccc3c(c2)CCCC3)C2(C(=O)O)CC2)cc1 (stereo not given)

deltaG [3]: -6.7 kcal/mol | deltaH [4]: -4.5 kcal/mol | -TdeltaS [5]: -2.2 kcal/mol | IC50 [1]: 39 µM
SMILES: Cc1ccc([C@H](CC(=O)O)NC(=O)Cc2ccc3c(c2)CCCC3)cc1

SMILES: Cc1ccc([C@@H](NC(=O)C(F)(F)c2ccccc2)[C@@H](C)C(=O)O)cc1
IC50 [6]: 66 µM | Papp at 2 h, 25 µM [2]: 15 ×10⁻⁶ cm/s | IC50 [1]: 8.9 µM

solubility at 4 h [7]: 469 µM (≈ 165 µg/mL) | remaining at 1 h, 5 µM [8]: 95% | solubility at 4 h [9]: 432 µM (≈ 152 µg/mL) | Papp at 2 h, 25 µM [2]: 17 ×10⁻⁶ cm/s | IC50 [1]: 40 µM | remaining at 1 h, 5 µM [10]: 85%
SMILES: Cc1ccc(C(CC(=O)O)NC(=O)Cc2ccc3c(c2)CCCC3)cc1 (stereo not given)

Papp at 2 h, 25 µM [2]: 0.27 ×10⁻⁶ cm/s | IC50 [1]: > 100 µM
SMILES: Cc1ccc([C@@H](NC(=O)[C@H](O)c2ccccc2)[C@@H](C)C(=O)O)cc1

SMILES: Cc1ccc([C@@H](NC(=O)[C@@H](F)c2ccc3c(c2)CCCC3)[C@@H](C)C(=O)O)cc1
solubility at 4 h [7]: 303 µM (≈ 116 µg/mL) | bioavailability [11]: 136% | AUC at 25 h [12]: 324 µM·h | Tmax [13]: 1.3 h | Vd [14]: 0.18 L/kg | inhibition [15]: Dose-Dependent Effect | remaining at 1 h, 5 µM [8]: 87% | AUC at 25 h [16]: 79 µM·h | solubility at 4 h [9]: ≥ 475 µM | IC50 [6]: 2 µM | clearance [17]: 0.5 mL/min/kg | -TdeltaS [5]: -1.2 kcal/mol | half-life [18]: 270 min | MRT [19]: 5.6 h | Papp at 2 h, 25 µM [2]: 33 ×10⁻⁶ cm/s | MRT [20]: 10 h | IC50 [1]: 0.089 µM | remaining at 1 h, 5 µM [10]: 70%

Papp at 2 h, 25 µM [2]: 0.26 ×10⁻⁶ cm/s | IC50 [1]: 96 µM
SMILES: Cc1ccc([C@@H](NC(=O)[C@@H](O)c2ccccc2)[C@@H](C)C(=O)O)cc1

IC50 [1]: > 100 µM
SMILES: Cc1ccc([C@@H](CC(=O)O)NC(=O)Cc2ccc3c(c2)CCCC3)cc1

IC50 [1]: 99 µM
SMILES: CC[C@H](C(=O)O)[C@H](NC(=O)Cc1ccc2c(c1)CCCC2)c1ccc(C)cc1

SMILES: Cc1ccc([C@@H](NC(=O)Cc2ccc3c(c2)CCCC3)[C@@H](C)C(=O)O)cc1
deltaG [3]: -8 kcal/mol | IC50 [6]: 56 µM | deltaH [4]: -4.3 kcal/mol | -TdeltaS [5]: -3.7 kcal/mol | Papp at 2 h, 25 µM [2]: 25 ×10⁻⁶ cm/s | IC50 [1]: 2.8 µM

IC50 [1]: 83 µM
SMILES: CO[C@@H](C(=O)N[C@H](c1ccc(C)cc1)[C@@H](C)C(=O)O)c1ccccc1

IC50 [1]: 51 µM
SMILES: Cc1ccc([C@@H](NC(=O)Cc2ccc3c(c2)CCCC3)[C@H](C)C(=O)O)cc1

solubility at 4 h [7]: 424 µM (≈ 172 µg/mL) | remaining at 1 h, 5 µM [8]: 0% | solubility at 4 h [9]: ≥ 475 µM | Papp at 2 h, 25 µM [2]: 13 ×10⁻⁶ cm/s | IC50 [1]: 37 µM | remaining at 1 h, 5 µM [10]: 0%
SMILES: COc1ccc(S(=O)(=O)Nc2ccc(N3CCCCCC3)cc2C(=O)O)cc1

SMILES: Cc1ccc([C@@H](NC(=O)[C@@H](F)c2ccccc2)[C@@H](C)C(=O)O)cc1
IC50 [6]: 36 µM | Papp at 2 h, 25 µM [2]: 12 ×10⁻⁶ cm/s | IC50 [1]: 3.5 µM

Papp at 2 h, 25 µM [2]: 1.7 ×10⁻⁶ cm/s | IC50 [1]: > 100 µM
SMILES: Cc1ccc([C@@H](NC(=O)C(=O)c2ccccc2)[C@@H](C)C(=O)O)cc1

Papp at 2 h, 25 µM [2]: 2.3 ×10⁻⁶ cm/s | IC50 [1]: 67 µM
SMILES: Cc1ccc([C@@H](NC(=O)Cc2ccccc2)[C@@H](C)C(=O)O)cc1
